Values of other authors as cited in article PMC3294027 (Methods (San Diego, Calif.), 2011).
Where two headings read alike, the source gives them in different places.

Tests used:
[1] = tested on: antibody 2D12.5; details: 0.1 M sodium phosphate, pH 7.0, SD in parentheses
[2] = tested on: antibody 2D12.5; details: for Half-life / koff: TBS pH 7.4, Avg(SD); for Calc kon: calculated as koff/KD

| Substance | KA ([1]; 30 °C) | Kd ([1]; 30 °C) | ΔG ([1]; 30 °C) | ΔH ([1]; 30 °C) | ΔS ([1]; 30 °C) | KA ([1]; 37 °C) | Kd ([1]; 37 °C) | ΔG ([1]; 37 °C) | ΔH ([1]; 37 °C) | ΔS ([1]; 37 °C) | Half-life ([2]; 30°C) | koff ([2]; 30°C) | Calc kon ([2]; 30°C) | Half-life ([2]; 37°C) | koff ([2]; 37°C) | Calc kon ([2]; 37°C) |
| --- | --- | --- | --- | --- | --- | --- | --- | --- | --- | --- | --- | --- | --- | --- | --- | --- |
| cobalt(II) S-2-(4-aminobenzyl)-1, 4, 7, 10-tetraazacyclododecanetetraacetate [ABD(Co)] | 8.2(±0.9) ×10^5 M^−1 | 1200 nM | −8.2(±0.1) kcal/mol | −12.2(±0.4) kcal/mol | −13.2(±1.3) cal/mol-K | 7.1(±0.4) ×10^5 M^−1 | 1400 nM | −8.3(±0.1) kcal/mol | −12.4(±4.8) kcal/mol | −13.3(±4.8) cal/mol-K | – | – | – | – | – | – |
| yttrium S-2-(4-aminobenzyl)-1, 4, 7, 10-tetraazacyclododecanetetraacetate [ABD(Y)] | 3.3(±2.1) ×10^8 M^−1 | 3.1 nM | −11.7(±0.4) kcal/mol | −18.2(±0.5) kcal/mol | −21.5(±2.9) cal/mol-K | 5.2(±0.9) ×10^8 M^−1 | 2 nM | −12.4(±0.2) kcal/mol | −20.1(±1.2) kcal/mol | −24.9(±4.1) cal/mol-K | 2.68 ± 0.217 min | 4.0(±0.3) x10^−3 s−1 | 1.3e+06 M⁻¹ s⁻¹ | 1.62 ± 0.15 min | 7.0(±0.7) ×10^−3 s−1 | 3.5e+06 M⁻¹ s⁻¹ |
